Source: ChEMBL document CHEMBL5236651, “Synthesis and antibacterial activity of novel 2‑fluoro ketolide antibiotics with 11,12‑quinoylalkyl side chains” (2023)
Values after ≈ are worked out from the molar mass of the structure shown.

Legend:
Assay type in all cases: functional
Klebsiella pneumoniae [1] = test: Antibacterial activity against ESBL negative Klebsiella pneumoniae 7 assessed as inhibition of bacterial growth by CLSI based micro broth double dilution method
[2] = tested on: Staphylococcus epidermidis; test: Antibacterial activity against methicillin-sensitive Staphylococcus epidermidis 16-4 assessed as inhibition of bacterial growth by CLSI based micro broth double dilution method
Streptococcus pneumoniae [3] = test: Antibacterial activity against erythromycin-sensitive Streptococcus pneumoniae ATCC 49619 assessed as inhibition of bacterial growth by CLSI based micro broth double dilution method
Enterococcus faecalis [4] = test: Antibacterial activity against vancomycin-sensitive Enterococcus faecalis […] assessed as inhibition of bacterial growth by CLSI based micro broth double dilution method
Klebsiella pneumoniae [5] = test: Antibacterial activity against ESBL positive Klebsiella pneumoniae ATCC 700603 assessed as inhibition of bacterial growth by CLSI based micro broth double dilution method
Pseudomonas aeruginosa [6] = test: Antibacterial activity against Pseudomonas aeruginosa 16-11 assessed as inhibition of bacterial growth by CLSI based micro broth double dilution method
Klebsiella pneumoniae [7] = test: Antibacterial activity against ESBL negative Klebsiella pneumoniae 16-2 assessed as inhibition of bacterial growth by CLSI based micro broth double dilution method
Enterococcus faecalis [8] = test: Antibacterial activity against vancomycin-sensitive Enterococcus faecalis 16-6 assessed as inhibition of bacterial growth by CLSI based micro broth double dilution method
Streptococcus pneumoniae [9] = test: Antibacterial activity against erythromycin-resistant Streptococcus pneumoniae 12-3 assessed as inhibition of bacterial growth by CLSI based micro broth double dilution method
Staphylococcus aureus [10] = test: Antibacterial activity against methicillin-sensitive Staphylococcus aureus ATCC 29213 assessed as inhibition of bacterial growth by CLSI based micro broth double dilution method
Pseudomonas aeruginosa [11] = test: Antibacterial activity against Pseudomonas aeruginosa ATCC 27853 assessed as inhibition of bacterial growth by CLSI based micro broth double dilution method
Staphylococcus aureus [12] = test: Antibacterial activity against methicillin-sensitive Staphylococcus aureus 15 assessed as inhibition of bacterial growth by CLSI based micro broth double dilution method
Enterococcus faecalis [13] = test: Antibacterial activity against vancomycin-resistant Enterococcus faecalis ATCC 51575 assessed as inhibition of bacterial growth by CLSI based micro broth double dilution method
Streptococcus pyogenes [14] = test: Antibacterial activity against erythromycin-sensitive Streptococcus pyogenes ATCC 19615 assessed as inhibition of bacterial growth by CLSI based micro broth double dilution method
[15] = tested on: Staphylococcus epidermidis; test: Antibacterial activity against methicillin-sensitive Staphylococcus epidermidis ATCC 12228 assessed as inhibition of bacterial growth by CLSI based micro broth double dilution method
Escherichia coli [16] = test: Antibacterial activity against ESBL-negative Escherichia coli ATCC 25922 assessed as inhibition of bacterial growth by CLSI based micro broth double dilution method
Escherichia coli [17] = test: Antibacterial activity against ESBL-positive Escherichia coli ATCC 35218 assessed as inhibition of bacterial growth by CLSI based micro broth double dilution method
Streptococcus pyogenes [18] = test: Antibacterial activity against erythromycin-resistant Streptococcus pyogenes 12-1 assessed as inhibition of bacterial growth by CLSI based micro broth double dilution method
Staphylococcus aureus [19] = test: Antibacterial activity against methicillin-sensitive Staphylococcus aureus 16-1 assessed as inhibition of bacterial growth by CLSI based micro broth double dilution method
Escherichia coli [20] = test: Antibacterial activity against Escherichia coli 16-7 assessed as inhibition of bacterial growth by CLSI based micro broth double dilution method
Pseudomonas aeruginosa [21] = test: Antibacterial activity against Pseudomonas aeruginosa PAO1 assessed as inhibition of bacterial growth by CLSI based micro broth double dilution method
Enterococcus faecalis [22] = test: Antibacterial activity against vancomycin-resistant Enterococcus faecalis ATCC 51299 assessed as inhibition of bacterial growth by CLSI based micro broth double dilution method

| SMILES | MIC (Klebsiella pneumoniae [1]) [µg/mL] | MIC [2] [µg/mL] | MIC (Streptococcus pneumoniae [3]) [µg/mL] | MIC (Enterococcus faecalis [4]) [µg/mL] | MIC (Klebsiella pneumoniae [5]) [µg/mL] | MIC (Pseudomonas aeruginosa [6]) [µg/mL] | MIC (Klebsiella pneumoniae [7]) [µg/mL] | MIC (Enterococcus faecalis [8]) [µg/mL] | MIC (Streptococcus pneumoniae [9]) [µg/mL] | MIC (Staphylococcus aureus [10]) [µg/mL] | MIC (Pseudomonas aeruginosa [11]) [µg/mL] | MIC (Staphylococcus aureus [12]) [µg/mL] | MIC (Enterococcus faecalis [13]) [µg/mL] | MIC (Streptococcus pyogenes [14]) [µg/mL] | MIC [15] [µg/mL] | MIC (Escherichia coli [16]) [µg/mL] | MIC (Escherichia coli [17]) [µg/mL] | MIC (Streptococcus pyogenes [18]) [µg/mL] | MIC (Staphylococcus aureus [19]) [µg/mL] | MIC (Escherichia coli [20]) [µg/mL] | further results |
| --- | --- | --- | --- | --- | --- | --- | --- | --- | --- | --- | --- | --- | --- | --- | --- | --- | --- | --- | --- | --- | --- |
| CC[C@H]1OC(=O)[C@@](C)(F)C(=O)[C@H](C)[C@@H](O[C@@H]2O[C@H](C)C[C@H](N(C)C)[C@H]2O)[C@@](C)(OC)C[C@@H](C)C(=O)[C@H](C)[C@H]2N(CCCNc3ccnc4ccccc34)C(=O)O[C@]12C | 8 (≈ 9.82 µM) | 0.25 (≈ 0.307 µM) | ≤ 0.016 | 0.12 (≈ 0.147 µM) | 32 (≈ 39.3 µM) | > 32 | 16 (≈ 19.6 µM) | > 32 | 0.06 (≈ 0.0736 µM) | 0.12 (≈ 0.147 µM) | > 32 | 0.12 (≈ 0.147 µM) | > 32 | 0.06 (≈ 0.0736 µM) | 0.06 (≈ 0.0736 µM) | 4 (≈ 4.91 µM) | 8 (≈ 9.82 µM) | > 32 | 0.12 (≈ 0.147 µM) | 8 (≈ 9.82 µM) | MIC (Pseudomonas aeruginosa [21]): > 32 µg/mL; MIC (Enterococcus faecalis [22]): > 32 µg/mL |
| CC[C@H]1OC(=O)[C@@](C)(F)C(=O)[C@H](C)[C@@H](O[C@@H]2O[C@H](C)C[C@H](N(C)C)[C@H]2O)[C@@](C)(OC)C[C@@H](C)C(=O)[C@H](C)[C@H]2N(CCCN(C(=O)c3ccccc3)c3ccnc4ccccc34)C(=O)O[C@]12C | > 32 | 1 (≈ 1.09 µM) | ≤ 0.016 | 0.25 (≈ 0.272 µM) | > 32 | > 32 | > 32 | > 32 | 0.06 (≈ 0.0653 µM) | 1 (≈ 1.09 µM) | > 32 | 1 (≈ 1.09 µM) | > 32 | 0.12 (≈ 0.131 µM) | 1 (≈ 1.09 µM) | > 32 | > 32 | > 32 | 0.5 (≈ 0.544 µM) | > 32 | MIC (Pseudomonas aeruginosa [21]): > 32 µg/mL; MIC (Enterococcus faecalis [22]): > 32 µg/mL |
| CC[C@H]1OC(=O)[C@@](C)(F)C(=O)[C@H](C)[C@@H](O[C@@H]2O[C@H](C)C[C@H](N(C)C)[C@H]2O)[C@@](C)(OC)C[C@@H](C)C(=O)[C@H](C)[C@H]2N(CCCN(C(=O)c3ccccc3)c3cnc4ccccc4c3)C(=O)O[C@]12C | > 32 | 1 (≈ 1.09 µM) | ≤ 0.016 | 0.12 (≈ 0.131 µM) | > 32 | > 32 | > 32 | > 32 | 0.06 (≈ 0.0653 µM) | 0.25 (≈ 0.272 µM) | > 32 | 0.25 (≈ 0.272 µM) | > 32 | 0.03 (≈ 0.0326 µM) | 0.12 (≈ 0.131 µM) | > 32 | > 32 | 32 (≈ 34.8 µM) | 0.25 (≈ 0.272 µM) | > 32 | MIC (Pseudomonas aeruginosa [21]): > 32 µg/mL; MIC (Enterococcus faecalis [22]): > 32 µg/mL |
| CC[C@H]1OC(=O)[C@@](C)(F)C(=O)[C@H](C)[C@@H](O[C@@H]2O[C@H](C)C[C@H](N(C)C)[C@H]2O)[C@@](C)(OC)C[C@@H](C)C(=O)[C@H](C)[C@H]2N(CCCN(C(C)=O)c3ccnc4ccccc34)C(=O)O[C@]12C | > 32 | 0.25 (≈ 0.292 µM) | ≤ 0.016 | 0.06 (≈ 0.07 µM) | 32 (≈ 37.3 µM) | > 32 | > 32 | 4 (≈ 4.67 µM) | 0.03 (≈ 0.035 µM) | 0.12 (≈ 0.14 µM) | > 32 | 0.06 (≈ 0.07 µM) | 4 (≈ 4.67 µM) | 0.03 (≈ 0.035 µM) | 0.06 (≈ 0.07 µM) | 32 (≈ 37.3 µM) | 32 (≈ 37.3 µM) | 2 (≈ 2.33 µM) | 0.06 (≈ 0.07 µM) | 32 (≈ 37.3 µM) | MIC (Pseudomonas aeruginosa [21]): > 32 µg/mL; MIC (Enterococcus faecalis [22]): 4 µg/mL (≈ 4.67 µM) |
